# Test results from patent US10117909B2, “Combination of an insulin and a GLP-1 agonist” (Sanofi-Aventis Deutschland GmbH, priority 2008, dated 2018).
# Entries after “also recorded” stand apart in the source; their conditions may differ.
# Test: Oral glucose tolerance test (OGTT) in healthy dogs
# Assay type: in vivo, dog
# Settings: male beagle, n=6, single s.c. injection at time 0, insulin glargine 0.3 U/kg, AVE0010 10 μg/kg, relative to Lantus placebo; for OGTT-induced postprandial increase in blood glucose: repeated OGTT 2 g/kg p.o. at 30 min and 5 h; for blood glucose concentration in the postabsorptive phase: repeated OGTT 2 g/kg p.o.
# Description: Model: Oral glucose tolerance test (OGTT) in healthy dogs: Comparison of the insulin glargine/AVE0010 combination with the two individual active compounds.
# • Male normoglycemic beagles • Bodyweight: ˜15 kg • Number per group: n=6 Study Design (See FIG. 1) • Individual subcutaneous injections of placebo or test formulation at time 0 • 2 oral administrations of glucose, at 2 g of glucose/kg of bodyweight, at times 30 min and 5 h • Blood samples are taken to determine blood glucose, plasma insulin, and c-peptide Group Division (n=6) • Placebo (Lantus placebo formulation without API) • Insulin glargine (0.3 μl/kg s.c., equivalent to 1.8 nmol/kg). Insulin glargine is Gly(A21)-Arg(B31)-Arg(B32) human insulin. • AVE0010 (10 μg/kg s.c. in Lantus placebo formulation, equivalent to 2 nmol/kg).
# AVE0010 is des Pro^36exendin-4(1-39)-Lys6-NH2. • AVE0010/insulin glargine combination (10 μg/kg AVE0010/0.3 μl/kg insulin glargine s.c.)
substance,measurement,value
Gly(A21)-Arg(B31)-Arg(B32) human insulin [insulin glargine],OGTT-induced postprandial increase in blood glucose,does not prevent the OGTT-induced increase in blood glucose; also recorded: has no effect on the postprandial glucose level
same,blood glucose concentration in the postabsorptive phase,reinforces the expected delayed lowering of blood glucose concentration in the postabsorptive phase
des Pro^36exendin-4(1-39)-Lys6-NH2 [AVE0010],OGTT-induced postprandial increase in blood glucose,prevents the OGTT-induced postprandial increase in blood glucose almost completely
same,blood glucose concentration in the postabsorptive phase,"no effect on the glucose concentration in the postabsorptive phase; also recorded: has no effect on the level of glucose, which has fallen again following administration of glucose"
